Measurements published in US20220144812A1, “QUINOLINE DERIVATIVES AND THEIR USE FOR THE TREATMENT OF CANCER” (Epizyme, Inc., priority 2019, published 2022).

Experiments:
RT4 bladder cell line = assay: 7-day proliferation assay, RT4; type: cell-based; conditions: 168 h; RT4, 7 days, CellTiter-Glo
Experimental: (§1) This example describes methods and materials for 7-day proliferation assay.
(§2) A total of 22 bladder cell lines were used (see table below). Cell lines were cultured in recommended growth media according to supplier.
(§3) Cells were in culture media at a density optimized for a 7-day culture in a final volume of 150 μL per well in white opaque 96-well plates. Cells were allowed to adhere for several hours (4-6 h) then compounds were added with HPD300 Digital Dispenser and placed into the incubator at 37° C., 5% CO2 for 7 days. After 7 days incubation, 100 μL of CellTiter-Glo® Luminescent Cell Viability Assay (Promega-G7573) reagents were added per well. After 20 minutes incubation luminescence was measured in plate reader. IC50 were calculated from a non-linear logarithmic growth curve.
(§4) IC50 values (nanomolar (nM)) are summarized in the table below, which depicts the inhibitory effect of certain compounds in bladder cell lines.

639V bladder cell line = assay: 7-day proliferation assay, 639V; type: cell-based; conditions: Homo sapiens, 168 h, 7 days, CellTiter-Glo
Experimental: as §1, §2, §3, §4

RT112 bladder cell line = assay: 7-day proliferation assay, RT112; type: cell-based; conditions: Homo sapiens, RT-112, 168 h; RT112, 7 days, CellTiter-Glo
Experimental: as §1, §2, §3, §4

[1] = test system: BFTC905 bladder cell line; assay: 7-day proliferation assay, BFTC905; type: cell-based; conditions: Homo sapiens, BFTC-905, 168 h; BFTC905, 7 days, CellTiter-Glo
Experimental: as §1, §2, §3, §4

JMSU1 bladder cell line = assay: 7-day proliferation assay, JMSU1; type: cell-based; conditions: JMSU-1, 168 h; JMSU1, 7 days, CellTiter-Glo
Experimental: as §1, §2, §3, §4

KU1919 bladder cell line = assay: 7-day proliferation assay, KU1919; type: cell-based; conditions: Homo sapiens, KU-19-19, 168 h; KU1919, 7 days, CellTiter-Glo
Experimental: as §1, §2, §3, §4

KMBC2 bladder cell line = assay: 7-day proliferation assay, KMBC2; type: cell-based; conditions: 168 h; KMBC2, 7 days, CellTiter-Glo
Experimental: as §1, §2, §3, §4

647V bladder cell line = assay: 7-day proliferation assay, 647V; type: cell-based; conditions: Homo sapiens, 168 h, 7 days, CellTiter-Glo
Experimental: as §1, §2, §3, §4

SW1710 bladder cell line = assay: 7-day proliferation assay, SW1710; type: cell-based; conditions: Homo sapiens, 168 h; SW1710, 7 days, CellTiter-Glo
Experimental: as §1, §2, §3, §4

CREBBP (1084-1701) = biological target: T1, CREBBP (1084-1701) (Homo sapiens, UniProt Q92793); assay: Biochemical assay for CREBBP (1084-1701), SAMDI; conditions: SAMDI, read-out: CREBBP Biochemistry IC50
T1 construct: measured in the following biochemical assay using CREBBP (1084-1701); purchased
How it was run: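 Acetyltransferase activity measured by SAMDI mass spectrometry after capture on biochip. Enzyme sat with compound 30 min at RT before acetyl-CoA and biotinylated H3 11-25 (K14R, K23R) peptide were added for 30 min at RT. Formic acid quench, bicarbonate neutralisation; IC50 values reported.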

BC3C bladder cell line = assay: 7-day proliferation assay, BC3C; type: cell-based; conditions: 168 h, 7 days, CellTiter-Glo
Experimental: as §1, §2, §3, §4

CAL29 bladder cell line = assay: 7-day proliferation assay, CAL29; type: cell-based; conditions: 168 h; CAL29, 7 days, CellTiter-Glo
Experimental: as §1, §2, §3, §4

SCABER bladder cell line = assay: 7-day proliferation assay, SCABER; type: cell-based; conditions: Homo sapiens, 168 h, 7 days, CellTiter-Glo
Experimental: as §1, §2, §3, §4

SW780 bladder cell line = assay: 7-day proliferation assay, SW780; type: cell-based; conditions: Homo sapiens, 168 h; SW780, 7 days, CellTiter-Glo
Experimental: as §1, §2, §3, §4

EP300 (P300(1048-1664)) = biological target: T2, EP300 (P300(1048-1664)) (Homo sapiens, UniProt Q09472); assay: Biochemical assay for EP300, SAMDI; conditions: EP300, SAMDI; read-out: EP300 Biochemistry IC50
T2 construct: P300(1048-1664)
T2 sequence (Q09472 1048-1664): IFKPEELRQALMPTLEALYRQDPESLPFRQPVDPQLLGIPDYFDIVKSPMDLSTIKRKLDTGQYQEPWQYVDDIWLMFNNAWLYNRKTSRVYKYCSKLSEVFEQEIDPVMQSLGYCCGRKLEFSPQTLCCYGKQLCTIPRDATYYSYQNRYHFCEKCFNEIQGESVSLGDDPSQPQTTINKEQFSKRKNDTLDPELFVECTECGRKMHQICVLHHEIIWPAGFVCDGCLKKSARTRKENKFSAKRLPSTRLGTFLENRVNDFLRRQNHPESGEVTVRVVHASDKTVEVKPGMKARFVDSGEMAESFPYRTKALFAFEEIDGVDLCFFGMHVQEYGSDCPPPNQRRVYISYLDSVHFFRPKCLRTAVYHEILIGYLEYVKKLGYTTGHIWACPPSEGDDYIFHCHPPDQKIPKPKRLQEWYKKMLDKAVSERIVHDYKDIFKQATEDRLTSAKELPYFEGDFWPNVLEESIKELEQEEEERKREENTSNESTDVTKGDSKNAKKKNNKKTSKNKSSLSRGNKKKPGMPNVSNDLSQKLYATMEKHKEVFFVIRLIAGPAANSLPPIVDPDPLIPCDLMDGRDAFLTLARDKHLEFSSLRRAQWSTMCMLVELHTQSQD
From the text: The following example describes materials and methods relating to a biochemical assay for EP300. IC50 values (micromolar (μM)) are summarized in Table 1, Table 2, and Table 3 under the column labeled: “EP300 Biochemistry IC50 (micromolar).”

T1 sequence (Q92793 1084-1701): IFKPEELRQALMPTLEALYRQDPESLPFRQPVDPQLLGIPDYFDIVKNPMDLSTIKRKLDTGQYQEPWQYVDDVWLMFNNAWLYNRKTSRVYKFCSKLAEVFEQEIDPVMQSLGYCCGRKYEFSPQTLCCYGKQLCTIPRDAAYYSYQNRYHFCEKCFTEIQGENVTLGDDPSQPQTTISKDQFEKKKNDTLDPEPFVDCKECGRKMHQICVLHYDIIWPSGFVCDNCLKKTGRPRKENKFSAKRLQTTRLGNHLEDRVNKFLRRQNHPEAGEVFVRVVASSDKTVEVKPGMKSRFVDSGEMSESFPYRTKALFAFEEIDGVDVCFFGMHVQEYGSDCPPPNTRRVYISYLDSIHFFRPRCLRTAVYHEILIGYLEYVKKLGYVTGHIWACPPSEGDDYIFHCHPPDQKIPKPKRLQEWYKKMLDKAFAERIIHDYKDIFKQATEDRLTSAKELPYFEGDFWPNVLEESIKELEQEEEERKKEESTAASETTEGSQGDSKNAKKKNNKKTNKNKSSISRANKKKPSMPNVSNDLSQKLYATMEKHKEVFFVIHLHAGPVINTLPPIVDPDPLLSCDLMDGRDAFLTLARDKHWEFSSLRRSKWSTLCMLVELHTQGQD

Row | SMILES | IC50 (RT4 bladder cell line) | IC50 (639V bladder cell line) | IC50 (RT112 bladder cell line) | IC50 [1] | IC50 (JMSU1 bladder cell line) | IC50 (KU1919 bladder cell line) | IC50 (KMBC2 bladder cell line) | IC50 (647V bladder cell line) | IC50 (SW1710 bladder cell line) | IC50 (CREBBP (1084-1701)) | IC50 (BC3C bladder cell line) | IC50 (CAL29 bladder cell line) | IC50 (SCABER bladder cell line) | IC50 (SW780 bladder cell line) | IC50 (EP300 (P300(1048-1664)))
1 | CCn1ncc(CN(C)C(=O)c2cc(-c3ccc(NCCNC)c(C)n3)nc3ccc(Cl)cc23)c1C [Compound 3, 6-chloro-N-[(1-ethyl-5-methyl-1H-pyrazol-4-yl)methyl]-N-methyl-2-(6-methyl-5-{[2-(methylamino)ethyl]amino}pyridin-2-yl)quinoline-4-carboxamide] | 158 nM | 40 nM | 111 nM | 122 nM | 378 nM | 145 nM | 7640 nM | 127 nM | 290 nM | 21 nM | 5100 nM | 1990 nM | 249 nM | 228 nM | 4.4 nM
2 | CCn1ncc(CN(C)C(=O)c2cc(-c3ccc(NC4CN(C)C4)c(C)n3)nc3ccc(Cl)cc23)c1C [Compound 480] | 174 nM | 57 nM | 198 nM | 110 nM | 546 nM | 90.5 nM | 1810 nM | 52 nM | 184 nM | 17.1 nM | 10000 nM | 524 nM | 172 nM | 126 nM | 6.5 nM
3 | CCc1noc(CN(C)C(=O)c2cc(-c3ccc(NCCNC)c(C)n3)nc3ccc(Cl)cc23)c1C [Compound 537] | 344 nM | 99.5 nM | 370 nM | 224 nM | 748 nM | 217 nM | 1600 nM | 125 nM | 190 nM | 32.8 nM | 4060 nM | 704 nM | 252 nM | 322 nM | 22 nM
4 | CCc1ncc(CN(C)C(=O)c2cc(-c3ccc(NCCN(C)C)c(C)n3)nc3ccc(Cl)cc23)n1C [Compound 577] | 199 nM | 100 nM | 78 nM | 132 nM | 997 nM | 102 nM | 896 nM | 53.5 nM | 143 nM | 42.9 nM | 1190 nM | 1200 nM | 182 nM | 168 nM | 18.7 nM
